Assay results from article PMC10300102, “In vivo inhibition of nuclear ACE2 translocation protects against SARS-CoV-2 replication and lung damage through epigenetic imprinting” (Nature Communications, 2023).
Where a SMILES comes first, the peptide text is derived from it. The star is where a group is joined. Myristoyl = CCCCCCCCCCCCCC(=O)*

What was measured:
Mouse tolerance studies = assay type: in vivo, C57BL/6 J mice; design: Mouse organ weight - i.v. treatment, Brain / Mouse organ weight - i.v. treatment, Heart / Mouse organ weight - i.v. treatment, Kidney / Mouse organ weight - i.v. treatment, Liver / Mouse organ weight - i.v. treatment, Lungs / Mouse organ weight - i.v. treatment, Spleen: unit not given here; settings: for Mouse organ weight - i.v. treatment, Brain / Mouse organ weight - i.v. treatment, Heart / Mouse organ weight - i.v. treatment, Kidney / Mouse organ weight - i.v. treatment, Liver / Mouse organ weight - i.v. treatment, Lungs / Mouse organ weight - i.v. treatment, Spleen: S 1f, mean, N 5
Description: For NACE2i intraperitoneal (i.p.) studies, female C57BL/6 J mice (6-8 weeks, 3 per group) were treated with a single bolus dose of NACE2i at 3, 10, 30, or 100 mg/kg intraperitoneally for seven days. For NACE2i intravenous (i.v.) studies, male C57BL/6 J mice (6–8 weeks, 5 per group) were treated with daily bolus doses of either sodium chloride 0.9% vehicle or NACE2i at 3, 10, or 30 mg/kg intravenously for six days. For ACE2i studies, male C57BL/6 J mice (6 weeks, 5 per group) were treated with daily bolus doses of either saline vehicle or ACE2i at 10, 30, or 100 mg/kg intravenously or at 3, 10, and 30 mg/kg intranasally (i.n.) for six days. All treatments were administered on day 1, and all mice were observed and weighed daily prior to being euthanized for organ examination. All mice were purchased from the Animal Resources Centre (Canning Vale, Western Australia, Australia) and studies were carried out by Agilex Biolabs (St Lucia, Queensland, Australia). Animals were maintained in housing rooms under controlled environmental conditions: individually ventilated cages (IVCs) with a 12/12 light/dark cycle. The ambient temperature is set to 20–25 °C and relative humidity at 30-70% rH. The University of Queensland Animal Ethics Committee assessed and approved all studies (project code 2021/AE000659).

[1] = system: ACE2, ACE2me, SARS-CoV-2 spike protein; design: species or system golden Syrian hamsters; settings: hamster, in vivo
[2] = i.p. single bolus 10 mg/kg, n=3
[3] = i.p. single bolus 30 mg/kg, n=3
[4] = i.p. single bolus 100 mg/kg, n=3
[5] = i.v. daily for 6 days 3 mg/kg, n=5
[6] = i.v. daily for 6 days 10 mg/kg, n=5
[7] = i.v. daily for 6 days 30 mg/kg, n=5

CCCCCCCCCCCCCC(=O)N[C@H](C(=O)NCC(=O)N[C@H](C(=O)N[C@@H](CCCNC(=N)N)C(=O)N[C@@H](CC(=O)O)C(=O)N[C@@H](CCCNC(=N)N)C(=O)N[C@@H](CCCCN)C(=O)N[C@@H](CCCCN)C(=O)N[C@@H](CCCCN)C(=O)N[C@@H](CC(N)=O)C(=O)N[C@@H](CCCCN)C(=O)N[C@@H](C)C(=O)N[C@@H](CCCNC(=N)N)C(=O)N[C@@H](CO)C(=O)O)[C@@H](C)CC)[C@@H](C)O [NACE2i] (Myristoyl-TGIRDRKKKNKARS-OH)
Diarrhoea - Mild (number of animals) (Mouse tolerance studies; IP route, 3 mg/kg, n = 3): 0
No abnormalities (number of animals) (Mouse tolerance studies; IP route, 3 mg/kg, n = 3): 3
Palpebral Closure - Mild (number of animals) (Mouse tolerance studies; IP route, 3 mg/kg, n = 3): 0
Piloerection - Mild (number of animals) (Mouse tolerance studies; IP route, 3 mg/kg, n = 3): 0
Reduced Activity - Mild (number of animals) (Mouse tolerance studies; IP route, 3 mg/kg, n = 3): 0
Reduced Activity - Moderate (number of animals) (Mouse tolerance studies; IP route, 3 mg/kg, n = 3): 0
Right limb raised - Mild (number of animals) (Mouse tolerance studies; IP route, 3 mg/kg, n = 3): 0
Diarrhoea - Mild (number of animals) (Mouse tolerance studies; IP route, 10 mg/kg, n = 3): 0
No abnormalities (number of animals) (Mouse tolerance studies; IP route, 10 mg/kg, n = 3): 3
Palpebral Closure - Mild (number of animals) (Mouse tolerance studies; IP route, 10 mg/kg, n = 3): 0
Piloerection - Mild (number of animals) (Mouse tolerance studies; IP route, 10 mg/kg, n = 3): 0
Reduced Activity - Mild (number of animals) (Mouse tolerance studies; IP route, 10 mg/kg, n = 3): 0
Reduced Activity - Moderate (number of animals) (Mouse tolerance studies; IP route, 10 mg/kg, n = 3): 0
Right limb raised - Mild (number of animals) (Mouse tolerance studies; IP route, 10 mg/kg, n = 3): 0
Diarrhoea - Mild (number of animals) (Mouse tolerance studies; IP route, 30 mg/kg, n = 3): 0
No abnormalities (number of animals) (Mouse tolerance studies; IP route, 30 mg/kg, n = 3): 0
Palpebral Closure - Mild (number of animals) (Mouse tolerance studies; IP route, 30 mg/kg, n = 3): 1
Piloerection - Mild (number of animals) (Mouse tolerance studies; IP route, 30 mg/kg, n = 3): 0
Reduced Activity - Mild (number of animals) (Mouse tolerance studies; IP route, 30 mg/kg, n = 3): 3
Reduced Activity - Moderate (number of animals) (Mouse tolerance studies; IP route, 30 mg/kg, n = 3): 0
Right limb raised - Mild (number of animals) (Mouse tolerance studies; IP route, 30 mg/kg, n = 3): 3
Diarrhoea - Mild (number of animals) (Mouse tolerance studies; IP route, 100 mg/kg, n = 3): 1
No abnormalities (number of animals) (Mouse tolerance studies; IP route, 100 mg/kg, n = 3): 0
Palpebral Closure - Mild (number of animals) (Mouse tolerance studies; IP route, 100 mg/kg, n = 3): 0
Piloerection - Mild (number of animals) (Mouse tolerance studies; IP route, 100 mg/kg, n = 3): 2
Reduced Activity - Mild (number of animals) (Mouse tolerance studies; IP route, 100 mg/kg, n = 3): 2
Reduced Activity - Moderate (number of animals) (Mouse tolerance studies; IP route, 100 mg/kg, n = 3): 2
Right limb raised - Mild (number of animals) (Mouse tolerance studies; IP route, 100 mg/kg, n = 3): 0
Hunched Posture - Mild (number of animals) (Mouse tolerance studies; IV route, 3 mg/kg, n = 5): 0
No abnormalities (number of animals) (Mouse tolerance studies; IV route, 3 mg/kg, n = 5): 5
Palpebral Closure - Mild (number of animals) (Mouse tolerance studies; IV route, 3 mg/kg, n = 5): 0
Piloerection - Mild (number of animals) (Mouse tolerance studies; IV route, 3 mg/kg, n = 5): 0
Reduced Activity - Mild (number of animals) (Mouse tolerance studies; IV route, 3 mg/kg, n = 5): 0
Reduced Activity - Moderate (number of animals) (Mouse tolerance studies; IV route, 3 mg/kg, n = 5): 0
Tremors - Mild (number of animals) (Mouse tolerance studies; IV route, 3 mg/kg, n = 5): 0
Hunched Posture - Mild (number of animals) (Mouse tolerance studies; IV route, 10 mg/kg, n = 5): 0
No abnormalities (number of animals) (Mouse tolerance studies; IV route, 10 mg/kg, n = 5): 5
Palpebral Closure - Mild (number of animals) (Mouse tolerance studies; IV route, 10 mg/kg, n = 5): 0
Piloerection - Mild (number of animals) (Mouse tolerance studies; IV route, 10 mg/kg, n = 5): 0
Reduced Activity - Mild (number of animals) (Mouse tolerance studies; IV route, 10 mg/kg, n = 5): 0
Reduced Activity - Moderate (number of animals) (Mouse tolerance studies; IV route, 10 mg/kg, n = 5): 0
Tremors - Mild (number of animals) (Mouse tolerance studies; IV route, 10 mg/kg, n = 5): 0
Hunched Posture - Mild (number of animals) (Mouse tolerance studies; IV route, 30 mg/kg, n = 5): 1
No abnormalities (number of animals) (Mouse tolerance studies; IV route, 30 mg/kg, n = 5): 0
Palpebral Closure - Mild (number of animals) (Mouse tolerance studies; IV route, 30 mg/kg, n = 5): 1
Piloerection - Mild (number of animals) (Mouse tolerance studies; IV route, 30 mg/kg, n = 5): 0
Reduced Activity - Mild (number of animals) (Mouse tolerance studies; IV route, 30 mg/kg, n = 5): 4
Reduced Activity - Moderate (number of animals) (Mouse tolerance studies; IV route, 30 mg/kg, n = 5): 5
Tremors - Mild (number of animals) (Mouse tolerance studies; IV route, 30 mg/kg, n = 5): 5
Mouse organ weight - i.v. treatment, Brain (Mouse tolerance studies; i.v. 3 mg/kg): 452.46
Mouse organ weight - i.v. treatment, Heart (Mouse tolerance studies; i.v. 3 mg/kg): 113.88
Mouse organ weight - i.v. treatment, Kidney (Mouse tolerance studies; i.v. 3 mg/kg): 265.49
Mouse organ weight - i.v. treatment, Liver (Mouse tolerance studies; i.v. 3 mg/kg): 1316.2
Mouse organ weight - i.v. treatment, Lungs (Mouse tolerance studies; i.v. 3 mg/kg): 151.37
Mouse organ weight - i.v. treatment, Spleen (Mouse tolerance studies; i.v. 3 mg/kg): 70.61
Mouse organ weight - i.v. treatment, Brain (Mouse tolerance studies; i.v. 10 mg/kg): 451.76
Mouse organ weight - i.v. treatment, Heart (Mouse tolerance studies; i.v. 10 mg/kg): 110.14
Mouse organ weight - i.v. treatment, Kidney (Mouse tolerance studies; i.v. 10 mg/kg): 258.06
Mouse organ weight - i.v. treatment, Liver (Mouse tolerance studies; i.v. 10 mg/kg): 1432.4
Mouse organ weight - i.v. treatment, Lungs (Mouse tolerance studies; i.v. 10 mg/kg): 140.86
Mouse organ weight - i.v. treatment, Spleen (Mouse tolerance studies; i.v. 10 mg/kg): 79.75
Mouse organ weight - i.v. treatment, Brain (Mouse tolerance studies; i.v. 30 mg/kg): 422.35
Mouse organ weight - i.v. treatment, Heart (Mouse tolerance studies; i.v. 30 mg/kg): 102.55
Mouse organ weight - i.v. treatment, Kidney (Mouse tolerance studies; i.v. 30 mg/kg): 221.42
Mouse organ weight - i.v. treatment, Liver (Mouse tolerance studies; i.v. 30 mg/kg): 1090.2
Mouse organ weight - i.v. treatment, Lungs (Mouse tolerance studies; i.v. 30 mg/kg): 130.37
Mouse organ weight - i.v. treatment, Spleen (Mouse tolerance studies; i.v. 30 mg/kg): 68.35
body weight (Mouse tolerance studies; female C57BL/6 J mice, single i.p. bolus up to 100 mg/kg, seven days): without significant changes in body weight
Diarrhoea, mild (number of mice) (Mouse tolerance studies; i.p. single bolus 3 mg/kg, n=3): 0
No abnormalities (number of mice) (Mouse tolerance studies; i.p. single bolus 3 mg/kg, n=3): 3
Palpebral closure, mild (number of mice) (Mouse tolerance studies; i.p. single bolus 3 mg/kg, n=3): 0
Piloerection, mild (number of mice) (Mouse tolerance studies; i.p. single bolus 3 mg/kg, n=3): 0
Reduced activity, mild (number of mice) (Mouse tolerance studies; i.p. single bolus 3 mg/kg, n=3): 0
Reduced activity, moderate (number of mice) (Mouse tolerance studies; i.p. single bolus 3 mg/kg, n=3): 0
Right limb raised, mild (number of mice) (Mouse tolerance studies; i.p. single bolus 3 mg/kg, n=3): 0
Diarrhoea, mild (number of mice) (Mouse tolerance studies; [2]): 0
No abnormalities (number of mice) (Mouse tolerance studies; [2]): 3
Palpebral closure, mild (number of mice) (Mouse tolerance studies; [2]): 0
Piloerection, mild (number of mice) (Mouse tolerance studies; [2]): 0
Reduced activity, mild (number of mice) (Mouse tolerance studies; [2]): 0
Reduced activity, moderate (number of mice) (Mouse tolerance studies; [2]): 0
Right limb raised, mild (number of mice) (Mouse tolerance studies; [2]): 0
Diarrhoea, mild (number of mice) (Mouse tolerance studies; [3]): 0
No abnormalities (number of mice) (Mouse tolerance studies; [3]): 0
Palpebral closure, mild (number of mice) (Mouse tolerance studies; [3]): 1
Piloerection, mild (number of mice) (Mouse tolerance studies; [3]): 0
Reduced activity, mild (number of mice) (Mouse tolerance studies; [3]): 3
Reduced activity, moderate (number of mice) (Mouse tolerance studies; [3]): 0
Right limb raised, mild (number of mice) (Mouse tolerance studies; [3]): 3
Diarrhoea, mild (number of mice) (Mouse tolerance studies; [4]): 1
No abnormalities (number of mice) (Mouse tolerance studies; [4]): 0
Palpebral closure, mild (number of mice) (Mouse tolerance studies; [4]): 0
Piloerection, mild (number of mice) (Mouse tolerance studies; [4]): 2
Reduced activity, mild (number of mice) (Mouse tolerance studies; [4]): 2
Reduced activity, moderate (number of mice) (Mouse tolerance studies; [4]): 2
Right limb raised, mild (number of mice) (Mouse tolerance studies; [4]): 0
Hunched posture, mild (number of mice) (Mouse tolerance studies; [5]): 0
No abnormalities (number of mice) (Mouse tolerance studies; [5]): 5
Palpebral closure, mild (number of mice) (Mouse tolerance studies; [5]): 0
Piloerection, mild (number of mice) (Mouse tolerance studies; [5]): 0
Reduced activity, mild (number of mice) (Mouse tolerance studies; [5]): 0
Reduced activity, moderate (number of mice) (Mouse tolerance studies; [5]): 0
Tremors, mild (number of mice) (Mouse tolerance studies; [5]): 0
Hunched posture, mild (number of mice) (Mouse tolerance studies; [6]): 0
No abnormalities (number of mice) (Mouse tolerance studies; [6]): 5
Palpebral closure, mild (number of mice) (Mouse tolerance studies; [6]): 0
Piloerection, mild (number of mice) (Mouse tolerance studies; [6]): 0
Reduced activity, mild (number of mice) (Mouse tolerance studies; [6]): 0
Reduced activity, moderate (number of mice) (Mouse tolerance studies; [6]): 0
Hunched posture, mild (number of mice) (Mouse tolerance studies; [7]): 1
No abnormalities (number of mice) (Mouse tolerance studies; [7]): 0
Palpebral closure, mild (number of mice) (Mouse tolerance studies; [7]): 1
Piloerection, mild (number of mice) (Mouse tolerance studies; [7]): 0
Reduced activity, mild (number of mice) (Mouse tolerance studies; [7]): 4
Reduced activity, moderate (number of mice) (Mouse tolerance studies; [7]): 5
Tremors, mild (number of mice) (Mouse tolerance studies; [7]): 5
body or organ weight (Mouse tolerance studies; male C57BL/6 J mice, daily i.v. bolus up to 30 mg/kg for six days): without significant changes in body or organ weight
ACE2me in the bronchioles [1]: significantly upregulated
Fn/c of ACE2 [1]: significantly reduced
SARS-CoV-2 spike protein expression in bronchioles [1]: significantly reduced or eliminated
global ACE2 and proportion of ACE2+ cells [1]: no significant change
nuclear ACE2 expression in bronchiolar epithelial cells [1]: significantly reduced
proportion of cells co-expressing ACE2 and ACE2me [1]: increased
